The text below walks through data of patent publication US20140072654A1, “CANCER WITH METABOLIC THERAPY AND HYPERBARIC OXYGEN” (priority 2011, published 2014).

Where “and” joins values, the source holds several entries; their conditions need not be identical. Equal entries are not always repeated. Entries after “also recorded” stand apart in the source; their conditions may differ. Some results are limits rather than exact numbers.

For data set [1] the following is noted: rat; cited from earlier work.
Data set [2] deals with primary cultured cortex neurons. Description: Superoxide anion production (DHE fluorescence) in neurons treated with HBO or amyloid beta. Format: cell-based, rat. The note with it: 60 min, 5 ATA O2; 2 mM ketones. On the procedure:
Effect of ketones on superoxide production in neurons treated with Aβ1-42 and HBO and cell viability of U87MG cells was examined Primary dissociated neuronal cultures of the hippocampus and cortex were acquired from Brain Bits LLC, to increase time efficiency and to minimize cost associated with purchasing rats. Hippocampal or cortical tissue from Brain Bits (shipped in Hibernate®) were enzymatically and mechanically dissociated via pipette trituration. Neurons were plated on 12 mm glass coverslips and allowed to adhere for 1-2 hrs in an incubator maintained at 9-20% O2 in a humidified atmosphere. Cultures were maintained in media purchased from Brain Bits, including NbActiv1® and NbActive4. […]
Presence of intracellular ROS is measured by detection of superoxide anion using Dihydroethidium (DHE). […] Cells were washed in PBS and then visualized using fluorescent microscopy or quantified using spectrophotometry. […]
Acquisition and statistical analyses of fluorescence imaging was performed as previously reported (D'Agostino, 2007; Filosa, 2002; Ritucci, 1996; Ritucci, 1997; Ritucci, 1998; Crowe, 1995; Weinlich, 1998; Inglefield, 1998; Inglefield, 1999). Average fluorescence intensity (FI) for each cell is calculated as the percent change in fluorescence from baseline, […], where FIb is the basal fluorescence defined by the two images preceding the experimental recordings. […]

For data set [3] the following is noted: rats.
A short description of data set [4]: Acute ketosis with supplementation in healthy VM/Dk mice (blood glucose, blood βHB, urine AcAc after feeding). Format: in vivo, mouse. On the procedure: FIG. 34(A)-(C) are graphs showing effect of ketone supplementation on blood glucose, blood βHB, urine AcAc, and body weight in mice. (A-C) blood glucose; (B) blood levels of ketones; and (C) urine AcAc of healthy VM/Dk mice 0-12 hours after feeding following 8 hour fast. […] Error bars represent ±SEM.

For a further data set, the system named is VM-M3 metastatic cancer. The experiment in a line: Survival time in VM-M3 mouse model of metastatic cancer. The format is in vivo.
A short description of data set [5]: Blood ketones and glucose after oral gavage in rats. The format is in vivo, rat. The note with it: for duration of elevation of blood ketones: single oral/intragastric administration; for effect on blood glucose: over 4 hrs, relative to water. As for the experimental part: Whole blood samples (10 μl) were acquired for analysis of glucose and BHB utilizing a commercially available glucose/ketone monitoring system (Nova Max® Plus) at time 0, 30, 60, 120, 180 and 240 min. In addition, heparinized blood samples (200 μl) were collected into Eppendorf tubes at time 0, 30, 60, 120, 180 and 240 min. Samples were processed for the detection and quantification of BHB, AcAc, and acetone. Briefly, samples were chilled on ice for 30 s, centrifuged in a micro-centrifuge (13,000 G) for 3-5 min and plasma (>100 μl), treated with reducing reagent of cold 0.2M sodium borodeuteride (NaBD4; Sigma, 205591, CAS 15681-89-7) dissolved in 0.1M NaOH (8.4 mg NaBD4 in 1 ml of 0.1M NaOH) and then immediately frozen on dry ice before storing at −80° C. Acetone was analyzed at the 60 minute time point, which was the predicted peak of blood AcAc levels (Desrochers et al. 1995). 300 μl of whole blood were collected in addition to the above collections, stabilized with cold 0.2M NaBD4, and then immediately frozen on dry ice. Samples were stored at −80° C. until analyzed for ketones. Internal standards of [^2H6]BHB or [^2H8]isopropanol were added to the treated plasma or blood samples (50 μl or 15 μl) and the BHB, AcAc (as M+1 of BHB) or acetone (as 2-propanol) metabolites were analyzed by gas chromatography-mass spectrometry (GC-MS) using an Agilent 5973 mass spectrometer, linked to a 6890 gas chromatograph equipped with an autosampler. Briefly, GC-MS conditions were either EI or CI mode (electron or chemical ionization mode); the samples were detected by selected ion monitoring as the BHB- and AcAc-trimethylsilyl derivatives (EI) or the derivative of acetone-pentafluorobenzoyl (CI).
KE and BD. […] Blood was collected and processed as described in the previous example.
Ketone measurements were taken at 30, 60, 120, 180 and 240 minutes. Blood plasma was treated with sodium borodeuteride (NaB2H4) to stabilize ketone concentration and then assayed by GC-MS. The rapid rise relating to blood ketones from BD-AcAc2 is due primarily from rapid desterfication in blood and tissues.

For another data set, the system named is VM-M3/Fluc tumors. Description: Tumor bioluminescence in VM-M3/Fluc mice. The format is in vivo, mouse.
Data set [6] in a line: Blood glucose, blood βHB and body weight of VM-M3 survival study mice.
For data set [7], the system named is rats exposed to hyperbaric oxygen (5 ATA O2). Description: CNS oxygen toxicity: latency to seizure (EEG) in rats in hyperbaric oxygen. The format is in vivo, rat. The note with it: rats; for effect on latency to seizure / CNS-OT (words): 5 ATA O2, ~3 ml (~10 g/kg) gavage 30 min before HBO2; for increase in latency to seizure (LS) compared to control: 5 ATA O2, ~10 g/kg intragastric 30 min before dive, control water. The text has this:
Hyperbaric Chamber HBO2 system consisted of two main elements: 1) a plexiglass chamber (˜3 liter capacity, Diamond Box, Buxco, Electronics Inc., model PLY3114), that housed the rat during the experiment, and 2) a hyperbaric chamber (Reimers System Inc.—7.8 ATA MWP), that contained the plexiglass chamber and functioned as the pressure vessel. Both chambers were connected to an air compressor (oil-less rotary scroll compressor—model DK6086, Powerex).
During each experiment (hyperbaric hyperoxia), both the main chamber and the animal chamber were filled with air (dive profile). Rats were placed into the plexiglass chamber and allowed ten minutes to acclimate, at which time the plexiglass chamber was flushed with 100% 02. The animal was then allowed 15 minutes to acclimate before both chambers were compressed to 5 ATA (58.8 PSIG) at a rate of 0.7 ATA/min. The outer chamber was pressurized using air (capacity ˜205 liters) to minimize the risk of an electrical-induced fire. Each experiment was visually monitored via a live camera. LS was calculated from the moment at which the internal and the external chambers reached 5 ATA until the onset of convulsions, identified as high-amplitude, high frequency spikes lasting 10 to 30 sec, followed by polyspikes and wave formation concurrent with tonic-clonic motions of forelimbs and head. After the onset of seizures, the plexiglass chamber was flushed with air to quickly terminate seizure, and both chambers decompressed to sea level. Decompression rate was 1 ATA/min. Rats were then allowed a 15 min recovery period in air at 1 ATA before being removed from the chamber.
The radiotelemetry system consisted of an implantable 4ET radio-transmitter able to amplify and broadcast signals via a receiver (DSI PhysioTel, model RPC-2) connected to an acquisition interface unit (ACQ 7700 Ponemah) via electrical penetrations in the wall of the hyperbaric chamber. The acquisition interface unit was connected to a computer for real time data collection and storage. The same acquisition unit also recorded chamber pressure and temperature, which were measured, respectively, by […] directly connected to the acquisition system via BNC (Bayonet Neill-Concelman) cables.
Anticonvulsant effect of supplemental ketones was tested in rats exposed to hyperbaric oxygen (5 ATA O2). The effects of ketone esters (KEs) in preventing CNS-OT in rats were assessed before, during and after HBO2 exposure by measuring various parameters.
Adult male Sprague-Dawley rats (n=60) rats (300-450 grams; 3 to 6 month old) were obtained from Harlan, anesthetized in 3-5% isoflurane (in 02) and implanted with a 4ET radio-transmitter (Data Sciences International, DSI) using sterile surgical technique. The rat chamber was ventilated with pure O2 while the hyperbaric chamber, containing the radio-receiver (DSI), was pressurized in parallel with air to 5 atmospheres absolute (ATA). One pair of leads (positive and negative poles) was implanted in the costal diaphragm at the junction with the abdominal wall for diaphragmatic electromyogram (dEMG) signals, one pair of electrodes was inserted in the pectoral muscle to acquire electrocardiogram (ECG) data, and two pairs of wires were embedded in the skull between Bregma and Lambda, with one lead on either side of midline for each pair (EEG recordings). The EMG wires were not inserted into crural diaphragmatic muscle because of the high risk of pneumothorax due to the thinness of the muscle (419 to 630 μm). 4ET radio-transmitters also monitored core body temperature and physical activity. Rats were weighed immediately before surgery and subsequently once every 7 days, just prior to the weekly exposures to HBO2. After surgery, every animal recovered for ≧1 week. The rats were food (not water) deprived for 18 hours prior to the start of the experiment.
In each case animals were gavaged about 30 minutes prior to diving. […]

[8] abbreviates: single oral administration ~10 g/kg.

For the molecule `CC(C)=O` [Acetone], the LD50 in [1] was greater than 5 g/kg.
In the case of `Cc1ccccc1NC(=N)Nc1ccccc1C` [DTG, 1,3,-di-o-tolylguanidine], in data set [2], the “effect on superoxide anion production under hyperoxia” value is on record as “prevented the hyperoxia-induced increase in superoxide production”.
As to `CC(=O)CC(=O)OCCC(C)OC(=O)CC(C)=O` (stereo not drawn) [KE, R,S-1,3-butanediol acetoacetate diester], in data set [3], the “blood pH change, mild nonpathological acidosis (FIG. 25)” value was “from 7.45 to 7.35”. The “decrease of blood pH compared to control after about 30 minutes” value in [3] (control pH ~7.5, mean) is given as 0.05. In addition, in data set [3] (control pH ~7.5, mean), the “decrease of blood pH compared to control after about one hour” value worked out at 0.1. In data set [3] (sustained), the “increase in blood pO2 levels” value was “approximately 30%”. Further, the “time after feeding to significant βHB elevation” value in data set [4] (after 8 hour fast) was 4 h. Also, in [4] (blood βHB and urine AcAc), the “ketone bodies elevated, βHB and AcAc” value is “elevated both βHB and AcAc”. Also, in data set [4] (standard chow with ketone supplementation after 8 hour fast), the “time for which blood glucose was significantly lowered” value was determined as 4 h. The “increase in mean survival time” value in the data set with VM-M3 metastatic cancer (Example 5, compared to controls) is reported as “approximately 22 days”. Moreover, the “Mean survival” value in the data set with VM-M3 metastatic cancer (Example 5, supplemental ketones, control (SD) 31.2) is listed as 52.8 days. In the data set with VM-M3 metastatic cancer (Example 5, vs control (SD)), the “% increase in survival time” value is 69% and 69.2* %. The “total ketones about 30 minutes after gavage” value in data set [5] (10 g/kg gavage) was greater than 5 mM. For the same molecule, the “blood AcAc” value in data set [5] (setting [8]) was greater than 3 mM. Moreover, in [5] (setting [8]), the “blood BHB” value is on record as greater than 3 mM. For the same molecule, the “sustained elevation of total ketones” value in data set [5] (single oral administration, for over 4 hrs) is on record as greater than 6 mM. Further, the “duration of elevation of blood ketones” value in [5] was 4 h and > 4 h; in data set [5] (listed as BD-AcAc2), “over 4 h”. Further, the blood acetone in data set [5] (within about 60 minutes after single oral administration) was roughly 0.7 mM. The “blood AcAc level” value in data set [5] (~10 g/kg gavage) was “increased significantly more; also recorded: significant increase in BHB and AcAc at 30 minutes”. In data set [5] (~10 g/kg gavage, 60 minutes), the “blood acetone level” value is “significantly higher at 60 minutes”. For the same molecule, the “effect on blood glucose” value is on record as “no significant effect on blood glucose levels” in data set [5] (~10 g/kg gavage) and “does not elevate blood glucose” in data set [5] (~10 g/kg gavage, listed as BD-AcAc2). Moreover, the “blood BHB level (words)” value in data set [5] (~10 g/kg gavage, vs control water) was “significant increase in BHB and AcAc at 30 minutes”. Also, the “tumor growth / bioluminescence” value in the data set with VM-M3/Fluc tumors (VM-M3 mice vs controls) is “drastically reduced tumor progression”. Moreover, the “whole body tumor bioluminescence (ROI), representative animal” value in the data set with VM-M3/Fluc tumors (day 21 after tumor cell inoculation) is recorded as 1.536×10^6. Also, the “blood glucose vs controls” value in data set [6] is reported as “lower blood glucose”. Moreover, in [6], the “blood ketones (βHB) vs controls” value is “elevated blood βHB”. The “effect on latency to seizure / CNS-OT (words)” value in data set [7] (listed as 1,3-BD AcAc diester) is “delays CNS-OT”; in [7] (listed as BD-AcAc2), “most effective KE against CNS-OT; also recorded: significantly increased the latency time to seizure”. Also, the “increase in latency to seizure (LS) compared to control” value in data set [7] is 574±115% and 574±116%; in data set [7] (listed as BD-AcAc2), greater than 570%; in data set [7] (listed as dKE), 570%.

Broadly, the LD50 is the dose expected to kill half of the subjects tested.
